Numbers after ± are expanded uncertainties.
Legend:
[1] = for vapor or sublimation pressure: Liquid, Gas chromatography
[2] = molar enthalpy of vaporization or sublimation; settings: 298 K; Liquid; DSC
[3] = Molar enthalpy of transition or fusion; settings: DSC

For `CCCCN(CCCC)CCCC` [tributylamine], the “vapor or sublimation pressure” value ([1]; 283.15 K) was 0.008 ± 0.001 kPa, the “vapor or sublimation pressure” value ([1]; 288.15 K) was 0.013 ± 0.001 kPa and the “vapor or sublimation pressure” value ([1]; 293.15 K) was 0.019 ± 0.002 kPa. The “vapor or sublimation pressure” value ([1]; 298.15 K) was 0.028 ± 0.003 kPa, the “vapor or sublimation pressure” value ([1]; 303.15 K) was 0.042 ± 0.004 kPa and the “vapor or sublimation pressure” value ([1]; 308.15 K) was 0.06 ± 0.006 kPa. For the same molecule, the “vapor or sublimation pressure” value ([1]; 313.15 K) was 0.087 ± 0.009 kPa and the molar enthalpy [2] was 13.9 ± 0.98 kcal/mol.
With `CCCCCCCCN(CCCCCCCC)CCCCCCCC` [trioctylamine] the “vapor or sublimation pressure” value ([1]; 283.15 K) was 2e-08 ± 1e-08 kPa, the “vapor or sublimation pressure” value ([1]; 288.15 K) was 3e-08 ± 1e-08 kPa and the “vapor or sublimation pressure” value ([1]; 293.15 K) was 7e-08 ± 2e-08 kPa. For the same molecule, the “vapor or sublimation pressure” value ([1]; 298.15 K) was 1.4e-07 ± 2e-08 kPa, the “vapor or sublimation pressure” value ([1]; 303.15 K) was 2.8e-07 ± 4e-08 kPa and the “vapor or sublimation pressure” value ([1]; 308.15 K) was 5.3e-07 ± 6e-08 kPa. For the same molecule, the “vapor or sublimation pressure” value ([1]; 313.15 K) was 1e-06 ± 1.1e-07 kPa and the molar enthalpy [2] was 23.9 ± 0.837 kcal/mol.
In the case of `CCCCCCCCCCCCCCCCN(C)C` [1-hexadecanamine, N,N-dimethyl-], the “vapor or sublimation pressure” value ([1]; 283.15 K) is reported as 2e-06 ± 1e-06 kPa, the “vapor or sublimation pressure” value ([1]; 288.15 K) is reported as 3e-06 ± 1e-06 kPa and the “vapor or sublimation pressure” value ([1]; 293.15 K) is reported as 6e-06 ± 1e-06 kPa. For the same molecule, the “vapor or sublimation pressure” value ([1]; 298.15 K) was 1.1e-05 ± 1e-06 kPa, the “vapor or sublimation pressure” value ([1]; 303.15 K) was 1.9e-05 ± 2e-06 kPa and the “vapor or sublimation pressure” value ([1]; 308.15 K) was 3.2e-05 ± 3e-06 kPa. For the same molecule, the “vapor or sublimation pressure” value ([1]; 313.15 K) was 5.5e-05 ± 6e-06 kPa and the molar enthalpy [2] was 20.3 ± 2.87 kcal/mol.
With `CC(C)CN(CC(C)C)CC(C)C` [triisobutylamine] the “vapor or sublimation pressure” value ([1]; 283.15 K) was 0.037 ± 0.004 kPa, the “vapor or sublimation pressure” value ([1]; 288.15 K) was 0.055 ± 0.006 kPa and the “vapor or sublimation pressure” value ([1]; 293.15 K) was 0.079 ± 0.008 kPa. For the same molecule, the “vapor or sublimation pressure” value ([1]; 298.15 K) was 0.113 ± 0.011 kPa, the “vapor or sublimation pressure” value ([1]; 303.15 K) was 0.159 ± 0.016 kPa and the “vapor or sublimation pressure” value ([1]; 308.15 K) was 0.222 ± 0.022 kPa. The “vapor or sublimation pressure” value ([1]; 313.15 K) was 0.306 ± 0.031 kPa and the molar enthalpy [2] was 12.5 ± 1.1 kcal/mol.
In the case of `CCCCCCCCCCCCCCN(C)C` [1-tetradecanamine, N,N-dimethyl-], the “vapor or sublimation pressure” value ([1]; 283.15 K) is reported as 1.7e-05 ± 2e-06 kPa, the “vapor or sublimation pressure” value ([1]; 288.15 K) is reported as 3.1e-05 ± 3e-06 kPa and the “vapor or sublimation pressure” value ([1]; 293.15 K) is reported as 5.4e-05 ± 5e-06 kPa. For the same molecule, the “vapor or sublimation pressure” value ([1]; 298.15 K) was 9.2e-05 ± 9e-06 kPa, the “vapor or sublimation pressure” value ([1]; 303.15 K) was 0.000153 ± 1.5e-05 kPa and the “vapor or sublimation pressure” value ([1]; 308.15 K) was 0.000253 ± 2.5e-05 kPa. For the same molecule, the “vapor or sublimation pressure” value ([1]; 313.15 K) was 0.00041 ± 4.1e-05 kPa and the molar enthalpy [2] was 18.5 ± 1 kcal/mol.
With `c1ccc(CN(Cc2ccccc2)Cc2ccccc2)cc1` [benzenemethanamine, N,N-bis(phenylmethyl)-] the “vapor or sublimation pressure” value ([1]; 283.15 K) was 7e-08 ± 2e-08 kPa, the “vapor or sublimation pressure” value ([1]; 288.15 K) was 1.4e-07 ± 2e-08 kPa and the “vapor or sublimation pressure” value ([1]; 293.15 K) was 2.7e-07 ± 4e-08 kPa. The “vapor or sublimation pressure” value ([1]; 298.15 K) was 5e-07 ± 6e-08 kPa, the “vapor or sublimation pressure” value ([1]; 303.15 K) was 9.3e-07 ± 1e-07 kPa and the “vapor or sublimation pressure” value ([1]; 308.15 K) was 1.7e-06 ± 1.8e-07 kPa. The “vapor or sublimation pressure” value ([1]; 313.15 K) was 3.03e-06 ± 3.1e-07 kPa, the Normal melting temperature ([1]; Crystal 1, DTA) was 92.5 ± 0.4 °C and the Triple point temperature ([1]; Crystal 2, DTA) was 342.5 ± 0.9 K. For the same molecule, the “Molar enthalpy of transition or fusion” value ([3]; Crystal 1) was 5.5 ± 0.127 kcal/mol, the “Molar enthalpy of transition or fusion” value ([3]; Crystal 2) was 0.264 ± 0.0502 kcal/mol and the molar enthalpy [2] was 22.1 ± 0.837 kcal/mol.
In the case of `C#CCN(C)[C@H](C)Cc1ccccc1` [(R)-N-methyl-N-(1-phenylpropan-2-yl)prop-2-yn-1-amine], the “vapor or sublimation pressure” value ([1]; 283.15 K) is reported as 0.0006 ± 0.0001 kPa, the “vapor or sublimation pressure” value ([1]; 288.15 K) is reported as 0.001 ± 0.0001 kPa and the “vapor or sublimation pressure” value ([1]; 293.15 K) is reported as 0.0016 ± 0.0002 kPa. For the same molecule, the “vapor or sublimation pressure” value ([1]; 298.15 K) was 0.0025 ± 0.0003 kPa, the “vapor or sublimation pressure” value ([1]; 303.15 K) was 0.0038 ± 0.0004 kPa and the “vapor or sublimation pressure” value ([1]; 308.15 K) was 0.0058 ± 0.0006 kPa. The “vapor or sublimation pressure” value ([1]; 313.15 K) was 0.0086 ± 0.0009 kPa and the molar enthalpy [2] was 15.4 ± 1.12 kcal/mol.
In the case of `CCCN(CCC)CCC` [tripropylamine], the “vapor or sublimation pressure” value ([1]; 283.15 K) is reported as 0.199 ± 0.02 kPa, the “vapor or sublimation pressure” value ([1]; 288.15 K) is reported as 0.278 ± 0.028 kPa and the “vapor or sublimation pressure” value ([1]; 293.15 K) is reported as 0.384 ± 0.038 kPa. For the same molecule, the “vapor or sublimation pressure” value ([1]; 298.15 K) was 0.524 ± 0.052 kPa, the “vapor or sublimation pressure” value ([1]; 303.15 K) was 0.709 ± 0.071 kPa and the “vapor or sublimation pressure” value ([1]; 308.15 K) was 0.949 ± 0.095 kPa. For the same molecule, the “vapor or sublimation pressure” value ([1]; 313.15 K) was 1.259 ± 0.13 kPa.
In the case of `CCN(CCCc1ccccc1)CCCc1ccccc1` [N-ethyl-3-phenyl-N-(3-phenylpropyl)propan-1-amine], the “vapor or sublimation pressure” value ([1]; 283.15 K) is reported as 2e-07 ± 1e-07 kPa, the “vapor or sublimation pressure” value ([1]; 288.15 K) is reported as 4e-07 ± 1e-07 kPa and the “vapor or sublimation pressure” value ([1]; 293.15 K) is reported as 7e-07 ± 1e-07 kPa. For the same molecule, the “vapor or sublimation pressure” value ([1]; 298.15 K) was 1.4e-06 ± 2e-07 kPa, the “vapor or sublimation pressure” value ([1]; 303.15 K) was 2.5e-06 ± 3e-07 kPa and the “vapor or sublimation pressure” value ([1]; 308.15 K) was 4.5e-06 ± 5e-07 kPa. For the same molecule, the “vapor or sublimation pressure” value ([1]; 313.15 K) was 7.8e-06 ± 8e-07 kPa and the molar enthalpy [2] was 21.3 ± 0.669 kcal/mol.
With `C[C@@H](Cc1ccccc1)N(C)Cc1ccccc1` [(S)-N-benzyl-N-methyl-1-phenylpropan-2-amine] the “vapor or sublimation pressure” value ([1]; 283.15 K) was 8e-06 ± 1e-06 kPa, the “vapor or sublimation pressure” value ([1]; 288.15 K) was 1.4e-05 ± 2e-06 kPa and the “vapor or sublimation pressure” value ([1]; 293.15 K) was 2.4e-05 ± 2e-06 kPa. For the same molecule, the “vapor or sublimation pressure” value ([1]; 298.15 K) was 4e-05 ± 4e-06 kPa, the “vapor or sublimation pressure” value ([1]; 303.15 K) was 6.7e-05 ± 7e-06 kPa and the “vapor or sublimation pressure” value ([1]; 308.15 K) was 0.000111 ± 1.1e-05 kPa. For the same molecule, the “vapor or sublimation pressure” value ([1]; 313.15 K) was 0.000179 ± 1.8e-05 kPa and the molar enthalpy [2] was 18.5 ± 0.55 kcal/mol.

From the NIST ThermoML archive (doi:10.1021/je500358r)
